Measurements as given in paper PMC6496074, “The Evolution of Azole Resistance in Candida albicans Sterol 14α-Demethylase (CYP51) through Incremental Amino Acid Substitutions” (Antimicrobial Agents and Chemotherapy, 2019).
“And” between values parts separate entries of the source, which are not always exact repeats. Equal entries are not always repeated.

Experiments:
Assay in all cases: CYP51 reconstitution assay
Assay type in all cases: biochemical
CaCYP51 D278N = molecular target: T1, CaCYP51 D278N (Candida albicans, UniProt P10613, D278N)
T1 construct: made in house; host or cells: E. coli DH5α (pCWori+)
Experimental: (§1) Azole antifungal agents were added in 2.5 μl dimethyl sulfoxide, followed by 10 min of incubation at 37°C prior to assay initiation with 4 mM β-NADPH-Na4. The samples were then shaken for 15 min at 37°C. Sterol metabolites were recovered by extraction with ethyl acetate, followed by derivatization with 0.1 ml N,O-bis(trimethylsilyl)trifluoroacetamide (BSTFA)–trimethylchlorosilane (TMCS) (99:1) and 0.3 ml anhydrous pyridine (2 h at 80°C), prior to analysis by gas chromatography-mass spectrometry (GC-MS) ([52]). IC50 determinations were performed in duplicate.

CaCYP51 D278N+G464S = molecular target: T2, CaCYP51 D278N+G464S (Candida albicans, UniProt P10613, D278N/G464S)
T2 construct: made in house; host or cells: E. coli DH5α (pCWori+)
Experimental: as §1

CaCYP51 F145L = molecular target: T3, CaCYP51 F145L (Candida albicans, UniProt P10613, F145L)
T3 construct: made in house; host or cells: E. coli DH5α (pCWori+)
Experimental: as §1

CaCYP51 F449Y = molecular target: T4, CaCYP51 F449Y (Candida albicans, UniProt P10613, F449Y)
T4 construct: made in house; host or cells: E. coli DH5α (pCWori+)
Experimental: as §1

CaCYP51 G307S = molecular target: T5, CaCYP51 G307S (Candida albicans, UniProt P10613, G307S)
T5 construct: made in house; host or cells: E. coli DH5α (pCWori+)
Experimental: as §1

CaCYP51 G307S+G450E = molecular target: T6, CaCYP51 G307S+G450E (Candida albicans, UniProt P10613, G307S/G450E)
T6 construct: made in house; host or cells: E. coli DH5α (pCWori+)
Experimental: as §1

CaCYP51 G448E = molecular target: T7, CaCYP51 G448E (Candida albicans, UniProt P10613, G448E)
T7 construct: made in house; host or cells: E. coli DH5α (pCWori+)
Experimental: as §1

CaCYP51 G450E = molecular target: T8, CaCYP51 G450E (Candida albicans, UniProt P10613, G450E)
T8 construct: made in house; host or cells: E. coli DH5α (pCWori+)
Experimental: as §1

CaCYP51 G464S = molecular target: T9, CaCYP51 G464S (Candida albicans, UniProt P10613, G464S)
T9 construct: made in house; host or cells: E. coli DH5α (pCWori+)
Experimental: as §1

CaCYP51 I471T = molecular target: T10, CaCYP51 I471T (Candida albicans, UniProt P10613, I471T)
T10 construct: made in house; host or cells: E. coli DH5α (pCWori+)
Experimental: as §1

CaCYP51 K143R = molecular target: T11, CaCYP51 K143R (Candida albicans, UniProt P10613, K143R)
T11 construct: made in house; host or cells: E. coli DH5α (pCWori+)
Experimental: as §1

CaCYP51 P230L = molecular target: T12, CaCYP51 P230L (Candida albicans, UniProt P10613, P230L)
T12 construct: made in house; host or cells: E. coli DH5α (pCWori+)
Experimental: as §1

CaCYP51 Q474K = molecular target: T13, CaCYP51 Q474K (Candida albicans, UniProt P10613, Q474K)
T13 construct: made in house; host or cells: E. coli DH5α (pCWori+)
Experimental: as §1

CaCYP51 R467K = molecular target: T14, CaCYP51 R467K (Candida albicans, UniProt P10613, R467K)
T14 construct: made in house; host or cells: E. coli DH5α (pCWori+)
Experimental: as §1

CaCYP51 S279F = molecular target: T15, CaCYP51 S279F (Candida albicans, UniProt P10613, S279F)
T15 construct: made in house; host or cells: E. coli DH5α (pCWori+)
Experimental: as §1

CaCYP51 S405F = molecular target: T16, CaCYP51 S405F (Candida albicans, UniProt P10613, S405F)
T16 construct: made in house; host or cells: E. coli DH5α (pCWori+)
Experimental: as §1

CaCYP51 V437I = molecular target: T17, CaCYP51 V437I (Candida albicans, UniProt P10613, V437I)
T17 construct: made in house; host or cells: E. coli DH5α (pCWori+)
Experimental: as §1

CaCYP51 V456I = molecular target: T18, CaCYP51 V456I (Candida albicans, UniProt P10613, V456I)
T18 construct: made in house; host or cells: E. coli DH5α (pCWori+)
Experimental: as §1

CaCYP51 V488I = molecular target: T19, CaCYP51 V488I (Candida albicans, UniProt P10613, V488I)
T19 construct: made in house; host or cells: E. coli DH5α (pCWori+)
Experimental: as §1

CaCYP51 Wild type = molecular target: T20, CaCYP51 Wild type (Candida albicans, UniProt P10613); conditions: Wild type
T20 construct: made in house; host or cells: E. coli DH5α (pCWori+)
Experimental: as §1

CaCYP51 Y118A = molecular target: T21, CaCYP51 Y118A (Candida albicans, UniProt P10613, Y118A)
T21 construct: made in house; host or cells: E. coli DH5α (pCWori+)
Experimental: as §1

CaCYP51 Y132F = molecular target: T22, CaCYP51 Y132F (Candida albicans, UniProt P10613, Y132F); conditions: mean ± SD, duplicate
T22 construct: made in house; host or cells: E. coli DH5α (pCWori+)
Experimental: as §1

CaCYP51 Y132H+K143R = molecular target: T23, CaCYP51 Y132H+K143R (Candida albicans, UniProt P10613, K143R/Y132H)
T23 construct: made in house; host or cells: E. coli DH5α (pCWori+)
Experimental: as §1

CaCYP51 Y257H = molecular target: T24, CaCYP51 Y257H (Candida albicans, UniProt P10613, Y257H)
T24 construct: made in house; host or cells: E. coli DH5α (pCWori+)
Experimental: as §1

CaCYP51 Y447H = molecular target: T25, CaCYP51 Y447H (Candida albicans, UniProt P10613, Y447H)
T25 construct: made in house; host or cells: E. coli DH5α (pCWori+)
Experimental: as §1

[1] = 0.25 h, 4 μM triazole, % of activity without triazole, read-out: Residual CYP51 activity (%) ± SD

T2 sequence (P10613 whole entry, looked up, stated change not applied): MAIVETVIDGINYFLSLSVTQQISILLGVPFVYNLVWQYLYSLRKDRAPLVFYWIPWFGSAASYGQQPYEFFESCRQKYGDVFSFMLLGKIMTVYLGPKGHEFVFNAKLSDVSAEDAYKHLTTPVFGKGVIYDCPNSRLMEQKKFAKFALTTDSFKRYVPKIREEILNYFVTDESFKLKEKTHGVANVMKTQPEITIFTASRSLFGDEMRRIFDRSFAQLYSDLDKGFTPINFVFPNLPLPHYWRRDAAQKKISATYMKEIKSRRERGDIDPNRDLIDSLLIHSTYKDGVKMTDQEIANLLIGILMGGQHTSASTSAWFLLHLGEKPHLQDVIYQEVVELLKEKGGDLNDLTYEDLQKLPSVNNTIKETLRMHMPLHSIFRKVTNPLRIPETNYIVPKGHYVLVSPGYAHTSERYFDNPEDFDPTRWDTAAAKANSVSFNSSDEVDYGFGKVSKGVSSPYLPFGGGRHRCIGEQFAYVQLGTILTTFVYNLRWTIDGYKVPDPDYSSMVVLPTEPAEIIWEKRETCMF
T20 sequence (P10613 whole entry, looked up, natural form): as the sequence (P10613 whole entry, looked up, stated change not applied) above
T6 sequence (P10613 whole entry, looked up, stated change not applied): as above
T4 sequence (P10613 whole entry, looked up, stated change not applied): as above
T11 sequence (P10613 whole entry, looked up, stated change not applied): as above
T17 sequence (P10613 whole entry, looked up, stated change not applied): as above
T5 sequence (P10613 whole entry, looked up, stated change not applied): as above
T13 sequence (P10613 whole entry, looked up, stated change not applied): as above
T16 sequence (P10613 whole entry, looked up, stated change not applied): as above

CC[C@@H]([C@H](C)O)n1ncn(-c2ccc(N3CCN(c4ccc(OC[C@@H]5CO[C@@](Cn6cncn6)(c6ccc(F)cc6F)C5)cc4)CC3)cc2)c1=O [Posaconazole, posaconazole]
remaining activity at 4 µM (CaCYP51 D278N; [1]): 14.8 ± 0.92% | IC50 (CaCYP51 D278N; mean ± SD, duplicate): 908 ± 20 nM | fold increase in IC50 over wild-type enzyme (CaCYP51 D278N+G464S): 4.8 fold | remaining activity at 4 µM (CaCYP51 D278N+G464S; [1]): 15 ± 1.16% | IC50 (CaCYP51 D278N+G464S; mean ± SD, duplicate): 930 ± 9 nM | remaining activity at 4 µM (CaCYP51 F145L; [1]): 1.37 ± 1.21% | IC50 (CaCYP51 F145L; mean ± SD, duplicate): 359 ± 18 nM | remaining activity at 4 µM (CaCYP51 F449Y; [1]): 5.42 ± 0.04% | IC50 (CaCYP51 F449Y; mean ± SD, duplicate): 366 ± 37 nM | remaining activity at 4 µM (CaCYP51 G307S; [1]): 0.71 ± 0.04% | IC50 (CaCYP51 G307S; mean ± SD, duplicate): 288 ± 42 nM | remaining activity at 4 µM (CaCYP51 G307S+G450E; [1]): 0.26 ± 0.11% | IC50 (CaCYP51 G307S+G450E; mean ± SD, duplicate): 312 ± 15 nM | remaining activity at 4 µM (CaCYP51 G448E; [1]): 7.89 ± 0.29% | IC50 (CaCYP51 G448E; mean ± SD, duplicate): 542 ± 51 nM | remaining activity at 4 µM (CaCYP51 G450E; [1]): 15.6 ± 0.21% | IC50 (CaCYP51 G450E; mean ± SD, duplicate): 908 ± 132 nM | remaining activity at 4 µM (CaCYP51 G464S; [1]): 0.54 ± 0.09% | IC50 (CaCYP51 G464S; mean ± SD, duplicate): 253 ± 24 nM | remaining activity at 4 µM (CaCYP51 I471T; [1]): 7.71 ± 0.58% | IC50 (CaCYP51 I471T; mean ± SD, duplicate): 522 ± 64 nM | remaining activity at 4 µM (CaCYP51 K143R; [1]): 13.09 ± 0.02% | IC50 (CaCYP51 K143R; mean ± SD, duplicate): 789 ± 3 nM | remaining activity at 4 µM (CaCYP51 P230L; [1]): 0.21 ± 0.05% | IC50 (CaCYP51 P230L; mean ± SD, duplicate): 238 ± 2 nM | remaining activity at 4 µM (CaCYP51 Q474K; [1]): 3.23 ± 0.18% | IC50 (CaCYP51 Q474K; mean ± SD, duplicate): 301 ± 17 nM | remaining activity at 4 µM (CaCYP51 R467K; [1]): 3.62 ± 0.09% | IC50 (CaCYP51 R467K; mean ± SD, duplicate): 380 ± 11 nM | remaining activity at 4 µM (CaCYP51 S279F; [1]): 20.64 ± 0.1% | IC50 (CaCYP51 S279F; mean ± SD, duplicate): 912 ± 16 nM | remaining activity at 4 µM (CaCYP51 S405F; [1]): 9.38 ± 0.53% | IC50 (CaCYP51 S405F; mean ± SD, duplicate): 637 ± 54 nM | remaining activity at 4 µM (CaCYP51 V437I; [1]): 0.59 ± 0.2% | IC50 (CaCYP51 V437I; mean ± SD, duplicate): 319 ± 9 nM | remaining activity at 4 µM (CaCYP51 V456I; [1]): 6.66 ± 0.05% | IC50 (CaCYP51 V456I; mean ± SD, duplicate): 602 ± 17 nM | remaining activity at 4 µM (CaCYP51 V488I; [1]): 2.11 ± 0.14% | IC50 (CaCYP51 V488I; mean ± SD, duplicate): 481 ± 52 nM | remaining activity at 4 µM (CaCYP51 Wild type; [1]): 0.66 ± 0.02% | IC50 (CaCYP51 Wild type; mean ± SD, duplicate, read-out: IC50): 200 nM and 195 nM | remaining activity at 4 µM (CaCYP51 Y118A; [1]): 0.46 ± 0.35% | IC50 (CaCYP51 Y118A; mean ± SD, duplicate): 206 ± 4 nM | IC50 (CaCYP51 Y132F): 343 ± 20 nM | remaining activity at 4 µM (CaCYP51 Y132H+K143R; [1]): 0.74 ± 0.05% | IC50 (CaCYP51 Y132H+K143R; mean ± SD, duplicate): 196 ± 7 nM | remaining activity at 4 µM (CaCYP51 Y257H; [1]): 6.42 ± 0.59% | IC50 (CaCYP51 Y257H; mean ± SD, duplicate): 611 ± 17 nM | remaining activity at 4 µM (CaCYP51 Y447H; [1]): 8.19 ± 3.58% | IC50 (CaCYP51 Y447H; mean ± SD, duplicate): 439 ± 135 nM
